Laboratory results taken from patent US12606540B2, “Triazolone compound” (MEDSHINE DISCOVERY INC., priority 2020, dated 2026).
Where two headings read alike, the source gives them in different places.

Assays:
[1] = Pharmacokinetic evaluation in mice (IV and PO); format: in vivo, female Balb/c mice; conditions: for MRT last: read-out: MRT0-last
Method: Experiment process: 0.04 mg/mL of a clarified solution of the test compound in 5% DMSO/10% Solutol solution/85% water was injected into female Balb/c mice (overnight fasting, 7-9 weeks of age) via tail vein, with dosage of 0.2 mg/kg. 0.1 mg/mL of the test compound in 5% DMSO/10% Solutol solution/0.2% Tween80/84.8% water was administered by gavage to female Balb/c mice (overnight fasting, 7-9 weeks of age), with dosage of 1 mg/kg. About 30 μL of blood was collected from the jugular vein at 0.0833, 0.25, 0.5, 1.0, 2.0, 4.0, 8.0, 10 and 24 h and from the tail vein at 0.25, 0.5, 1.0, 2.0, 4.0, 8.0 and 24 h after administration for both groups of animals, and were placed in anticoagulation tubes with EDTA-K2, and the blood was separated by centrifugation to obtain plasma. Plasma concentrations were detected by LC-MS/MS, and relevant pharmacokinetic parameters were calculated using WinNonlin™ Version 6.3 (Pharsight, Mountain View, CA) pharmacokinetic software with a non-compartmental model linear logarithmic trapezoid method.

[2] = system: dextran sulfate sodium (DSS) induced colitis model; assay: DSS induced colitis model in mice; format: in vivo, C57BL/6 mice
Method: • 6.1 Purpose of the study: In order to verify the effect of the test sample on dextran sulfate sodium (DSS) induced colitis model in […] mice. • 6.2 Experimental design for inducing colitis: The mice in the vehicle and administration groups were administered on Day 0 for 1 h, and the mice freely drank water containing 3% DSS until Day 7, after Day 8, the mice were euthanized and their colon was taken for analysis. C57BL/6 mice, 8 weeks of age, 18-20 g, female. Administration was started on Day 0 to Day 7 for both the vehicle and administration groups. • 6.3 Drinking water containing DSS: The appropriate amount of DSS powder was dissolved in autoclaved drinking water and configured as a 3% DSS solution. • 6.4 Administration: Animals of group 1 were given the vehicle, animals of group 2 were given compound 5, and animals of group 3 were given normal drinking water and the vehicle, the vehicle was 5% DMSO/10% Solutol solution/0.2% Tween80/84.8% aqueous solution, with twice a day. 6.5 Measurement 6.5.1 Weight
Recording frequency was once a day, Days 0 to 8.
The recording frequency is once a day, Days 0 to 8, and is rated at 4 grades according to the following criteria: • Weight change (0, ≤1%; 1, 1-5%; 2, 6-10%; 3, 11-20%; 4, >20%). • Hematochezia (0, negative; 1, weakly positive for occult blood; 2, positive for occult blood; 3, significant hematochezia; 4, massive hematochezia) • Stool score (0, normal; 1, soft stool; 2, flaccid stool; 3, loose stool; 4, diarrhea)
The daily disease index is obtained by adding the scores of the above three parts.
On Day 8, all animals received an overdose of CO2 and were executed by cervical dislocation. The abdominal cavity was cut open and the colon of the mice was taken, the tissue around the colon was removed, and the longitudinal length from the ileocecum to the anus was measured and the whole was photographed. The colon was dissected, the intestinal contents were cleaned, weighed separately, and the stool consistency was recorded.
The colonic tissue was divided into two longitudinally and one was fixed in 10% neutral paraformaldehyde in the form of “Swiss” rolls.
The experimental data were expressed as mean±standard error (S.E.M.). Data were adopted by GraphPad Prism and analyzed by ANOVA statistical method. P<0.05 was considered as statistical difference.

MLK1(h) = target: T1, MLK1(h) (Homo sapiens, UniProt P80192); assay: Eurofins KinaseProfiler kinase selectivity; format: biochemical; conditions: compound at 1 μM; ATP 45 μM; read-out: Residual enzyme activity
T1 construct: purchased Eurofins (KinaseProfiler platform)
Method: (§1) This experiment aims to study the activity and selectivity of the compounds towards kinases selected from the Eurofins KinaseProfiler™ platform. The compounds against each selected kinase were tested using the KinaseProfiler™ experimental procedure of Eurofins standard, which follows the relevant standard operating procedures. Protein kinases (except ATM(h) and DNA-PK(h)) were tested by […], while lipid kinases, ATM(h), ATR/ATRIP(h) and DNA-PK(h) were tested by HRTF®.
(§2) Compound powders were prepared into 10 mM mother liquor through 100% DMSO solution and then diluted to 50× liquid.
(§3) An appropriate amount of 50× storage solution of the test compound was taken into the test wells, and then the kinase and substrate were added and mixed well. A certain concentration of ATP was added to start the reaction.
(§4) Data were processed using custom in-house analysis software.
(§5) The kinase off-target study in vitro of compound 5 of the present disclosure was carried out to evaluate the inhibitory activity against 15 common kinases at a concentration of 1 μM of the drug, and the results are as shown in Table 6.

CDK1/cyclinB(h) = target: T2, CDK1/cyclinB(h) (Homo sapiens, UniProt P06493); assay: Eurofins KinaseProfiler kinase selectivity; format: biochemical; conditions: compound at 1 μM; ATP 45 μM; read-out: Residual enzyme activity
T2 construct: purchased Eurofins (KinaseProfiler platform)
Method: as §1, §2, §3, §4, §5

Flt3(h) = target: T3, Flt3(h) (Homo sapiens, UniProt P36888); assay: Eurofins KinaseProfiler kinase selectivity; format: biochemical; conditions: compound at 1 μM; ATP 200 μM; read-out: Residual enzyme activity
T3 construct: purchased Eurofins (KinaseProfiler platform)
T3 sequence (P36888 27-993): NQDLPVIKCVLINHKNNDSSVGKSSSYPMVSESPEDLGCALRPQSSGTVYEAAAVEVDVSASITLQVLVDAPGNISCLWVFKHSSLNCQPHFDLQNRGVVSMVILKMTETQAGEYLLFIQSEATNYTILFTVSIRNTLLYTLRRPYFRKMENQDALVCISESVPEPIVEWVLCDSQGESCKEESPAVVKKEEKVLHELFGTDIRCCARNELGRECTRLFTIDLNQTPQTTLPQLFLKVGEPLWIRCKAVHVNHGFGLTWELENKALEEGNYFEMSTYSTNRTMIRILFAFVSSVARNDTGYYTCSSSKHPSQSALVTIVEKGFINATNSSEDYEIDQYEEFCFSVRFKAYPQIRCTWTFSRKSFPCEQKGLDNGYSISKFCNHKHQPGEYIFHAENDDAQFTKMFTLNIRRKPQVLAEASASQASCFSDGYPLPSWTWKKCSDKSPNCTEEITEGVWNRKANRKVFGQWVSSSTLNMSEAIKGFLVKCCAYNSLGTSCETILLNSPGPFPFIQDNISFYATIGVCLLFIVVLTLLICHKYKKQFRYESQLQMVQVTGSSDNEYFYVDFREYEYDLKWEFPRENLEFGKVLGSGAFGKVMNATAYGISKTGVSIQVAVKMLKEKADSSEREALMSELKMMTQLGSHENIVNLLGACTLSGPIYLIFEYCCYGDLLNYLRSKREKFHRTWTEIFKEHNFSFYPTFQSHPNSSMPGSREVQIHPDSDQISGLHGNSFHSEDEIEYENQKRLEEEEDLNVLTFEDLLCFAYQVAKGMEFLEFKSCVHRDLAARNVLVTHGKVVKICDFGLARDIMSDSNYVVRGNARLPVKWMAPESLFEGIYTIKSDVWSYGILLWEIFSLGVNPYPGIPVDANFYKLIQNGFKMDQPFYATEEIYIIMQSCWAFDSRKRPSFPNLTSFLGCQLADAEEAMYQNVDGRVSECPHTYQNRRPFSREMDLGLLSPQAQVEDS
Method: as §1, §2, §3, §4, §5

KDR(h) = target: T4, KDR(h) (Homo sapiens, UniProt P35968); assay: Eurofins KinaseProfiler kinase selectivity; format: biochemical; conditions: compound at 1 μM; ATP 90 μM; read-out: Residual enzyme activity
T4 construct: purchased Eurofins (KinaseProfiler platform)
T4 sequence (P35968 20-1356): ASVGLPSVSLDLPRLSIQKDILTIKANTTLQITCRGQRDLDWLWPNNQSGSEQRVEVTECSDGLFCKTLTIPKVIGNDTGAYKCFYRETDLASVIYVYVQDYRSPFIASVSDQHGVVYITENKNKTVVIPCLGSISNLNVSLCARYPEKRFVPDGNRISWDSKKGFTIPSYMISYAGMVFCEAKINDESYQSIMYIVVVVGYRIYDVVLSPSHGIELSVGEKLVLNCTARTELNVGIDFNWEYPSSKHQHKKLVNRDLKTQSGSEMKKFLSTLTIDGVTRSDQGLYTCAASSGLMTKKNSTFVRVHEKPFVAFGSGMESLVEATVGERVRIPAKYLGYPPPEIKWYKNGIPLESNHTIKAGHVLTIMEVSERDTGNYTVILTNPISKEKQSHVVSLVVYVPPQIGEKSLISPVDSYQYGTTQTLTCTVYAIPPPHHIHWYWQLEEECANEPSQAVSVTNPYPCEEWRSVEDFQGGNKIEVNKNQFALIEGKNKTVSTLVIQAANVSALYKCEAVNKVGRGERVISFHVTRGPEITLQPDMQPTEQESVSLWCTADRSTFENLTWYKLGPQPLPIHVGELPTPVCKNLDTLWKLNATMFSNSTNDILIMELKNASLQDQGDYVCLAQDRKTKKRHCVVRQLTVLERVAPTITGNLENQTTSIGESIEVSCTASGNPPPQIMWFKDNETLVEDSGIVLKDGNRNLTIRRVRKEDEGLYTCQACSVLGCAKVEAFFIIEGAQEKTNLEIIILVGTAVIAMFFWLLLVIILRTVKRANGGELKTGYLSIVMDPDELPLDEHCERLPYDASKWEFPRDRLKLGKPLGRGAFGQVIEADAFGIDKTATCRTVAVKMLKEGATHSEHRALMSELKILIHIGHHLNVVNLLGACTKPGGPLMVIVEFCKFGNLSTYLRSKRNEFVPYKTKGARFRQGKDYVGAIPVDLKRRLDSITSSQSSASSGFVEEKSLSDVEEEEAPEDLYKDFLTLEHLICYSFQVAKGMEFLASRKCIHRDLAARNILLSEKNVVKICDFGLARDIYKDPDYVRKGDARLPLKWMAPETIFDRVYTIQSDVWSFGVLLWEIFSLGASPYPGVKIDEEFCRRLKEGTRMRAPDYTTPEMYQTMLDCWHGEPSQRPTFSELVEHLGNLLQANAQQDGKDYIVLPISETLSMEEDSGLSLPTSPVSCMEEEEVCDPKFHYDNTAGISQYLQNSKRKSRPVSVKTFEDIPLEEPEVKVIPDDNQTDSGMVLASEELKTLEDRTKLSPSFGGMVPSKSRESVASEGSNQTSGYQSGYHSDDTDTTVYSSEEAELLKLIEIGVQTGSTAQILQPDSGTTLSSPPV
Method: as §1, §2, §3, §4, §5

JAK2(h) = target: T5, JAK2(h) (Homo sapiens, UniProt O60674); assay: Eurofins KinaseProfiler kinase selectivity; format: biochemical; conditions: compound at 1 μM; ATP 45 μM; read-out: Residual enzyme activity
T5 construct: purchased Eurofins (KinaseProfiler platform)
Method: as §1, §2, §3, §4, §5

CDK9/cyclin T1(h) = target: T6, CDK9/cyclin T1(h) (Homo sapiens, UniProt P50750); assay: Eurofins KinaseProfiler kinase selectivity; format: biochemical; conditions: compound at 1 μM; ATP 45 μM; read-out: Residual enzyme activity
T6 construct: purchased Eurofins (KinaseProfiler platform)
T6 sequence (P50750 whole entry): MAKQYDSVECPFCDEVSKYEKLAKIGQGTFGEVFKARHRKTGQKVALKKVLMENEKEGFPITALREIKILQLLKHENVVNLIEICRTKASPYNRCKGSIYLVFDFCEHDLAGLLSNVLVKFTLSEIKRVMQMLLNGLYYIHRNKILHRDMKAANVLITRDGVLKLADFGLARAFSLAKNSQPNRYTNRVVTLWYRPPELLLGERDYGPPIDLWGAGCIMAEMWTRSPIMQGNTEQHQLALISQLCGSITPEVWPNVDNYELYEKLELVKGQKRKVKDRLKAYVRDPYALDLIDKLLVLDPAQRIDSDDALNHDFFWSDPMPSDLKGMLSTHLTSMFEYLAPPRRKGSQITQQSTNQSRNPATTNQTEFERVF
T6 sequence (O60563 whole entry partner): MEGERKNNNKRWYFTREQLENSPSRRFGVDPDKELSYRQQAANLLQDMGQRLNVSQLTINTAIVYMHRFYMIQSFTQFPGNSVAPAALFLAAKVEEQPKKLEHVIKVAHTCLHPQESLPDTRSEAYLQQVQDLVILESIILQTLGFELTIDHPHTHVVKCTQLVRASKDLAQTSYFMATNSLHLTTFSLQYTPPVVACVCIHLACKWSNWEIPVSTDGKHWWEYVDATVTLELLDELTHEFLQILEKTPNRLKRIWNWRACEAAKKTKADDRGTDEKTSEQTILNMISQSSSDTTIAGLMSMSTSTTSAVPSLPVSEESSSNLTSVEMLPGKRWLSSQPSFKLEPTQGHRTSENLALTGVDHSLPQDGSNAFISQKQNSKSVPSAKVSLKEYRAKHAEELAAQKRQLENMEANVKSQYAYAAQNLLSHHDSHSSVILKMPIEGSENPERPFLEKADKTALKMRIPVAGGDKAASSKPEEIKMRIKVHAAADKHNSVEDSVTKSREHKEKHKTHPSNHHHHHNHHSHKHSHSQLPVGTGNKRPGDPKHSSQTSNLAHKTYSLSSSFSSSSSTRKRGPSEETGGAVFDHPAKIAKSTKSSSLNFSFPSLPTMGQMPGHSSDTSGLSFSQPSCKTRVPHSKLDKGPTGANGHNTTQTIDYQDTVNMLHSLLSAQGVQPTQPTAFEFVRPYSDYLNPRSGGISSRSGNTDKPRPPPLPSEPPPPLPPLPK
Method: as §1, §2, §3, §4, §5

Fyn(h) = target: T7, Fyn(h) (Homo sapiens, UniProt P06241); assay: Eurofins KinaseProfiler kinase selectivity; format: biochemical; conditions: compound at 1 μM; ATP 70 μM; read-out: Residual enzyme activity
T7 construct: purchased Eurofins (KinaseProfiler platform)
Method: as §1, §2, §3, §4, §5

MST1(h) = target: T8, MST1(h) (Homo sapiens, UniProt Q13043); assay: Eurofins KinaseProfiler kinase selectivity; format: biochemical; conditions: compound at 1 μM; ATP 90 μM; read-out: Residual enzyme activity
T8 construct: purchased Eurofins (KinaseProfiler platform)
T8 sequence (Q13043 whole entry): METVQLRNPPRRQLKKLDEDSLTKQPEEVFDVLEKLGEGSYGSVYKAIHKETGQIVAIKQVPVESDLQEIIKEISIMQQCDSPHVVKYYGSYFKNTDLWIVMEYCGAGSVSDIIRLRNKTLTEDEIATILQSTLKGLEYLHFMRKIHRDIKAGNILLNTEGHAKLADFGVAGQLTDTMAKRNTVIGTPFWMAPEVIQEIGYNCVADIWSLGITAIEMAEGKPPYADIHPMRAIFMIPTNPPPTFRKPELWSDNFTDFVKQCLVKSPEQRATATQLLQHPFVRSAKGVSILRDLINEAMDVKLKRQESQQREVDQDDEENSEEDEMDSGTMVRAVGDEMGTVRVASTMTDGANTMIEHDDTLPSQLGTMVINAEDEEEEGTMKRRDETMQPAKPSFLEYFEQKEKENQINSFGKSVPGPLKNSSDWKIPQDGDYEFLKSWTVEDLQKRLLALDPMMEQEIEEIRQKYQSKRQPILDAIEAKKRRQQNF
Method: as §1, §2, §3, §4, §5

LOK(h) = target: T9, LOK(h) (Homo sapiens, UniProt O94804); assay: Eurofins KinaseProfiler kinase selectivity; format: biochemical; conditions: compound at 1 μM; ATP 120 μM; read-out: Residual enzyme activity
T9 construct: purchased Eurofins (KinaseProfiler platform)
T9 sequence (O94804 whole entry): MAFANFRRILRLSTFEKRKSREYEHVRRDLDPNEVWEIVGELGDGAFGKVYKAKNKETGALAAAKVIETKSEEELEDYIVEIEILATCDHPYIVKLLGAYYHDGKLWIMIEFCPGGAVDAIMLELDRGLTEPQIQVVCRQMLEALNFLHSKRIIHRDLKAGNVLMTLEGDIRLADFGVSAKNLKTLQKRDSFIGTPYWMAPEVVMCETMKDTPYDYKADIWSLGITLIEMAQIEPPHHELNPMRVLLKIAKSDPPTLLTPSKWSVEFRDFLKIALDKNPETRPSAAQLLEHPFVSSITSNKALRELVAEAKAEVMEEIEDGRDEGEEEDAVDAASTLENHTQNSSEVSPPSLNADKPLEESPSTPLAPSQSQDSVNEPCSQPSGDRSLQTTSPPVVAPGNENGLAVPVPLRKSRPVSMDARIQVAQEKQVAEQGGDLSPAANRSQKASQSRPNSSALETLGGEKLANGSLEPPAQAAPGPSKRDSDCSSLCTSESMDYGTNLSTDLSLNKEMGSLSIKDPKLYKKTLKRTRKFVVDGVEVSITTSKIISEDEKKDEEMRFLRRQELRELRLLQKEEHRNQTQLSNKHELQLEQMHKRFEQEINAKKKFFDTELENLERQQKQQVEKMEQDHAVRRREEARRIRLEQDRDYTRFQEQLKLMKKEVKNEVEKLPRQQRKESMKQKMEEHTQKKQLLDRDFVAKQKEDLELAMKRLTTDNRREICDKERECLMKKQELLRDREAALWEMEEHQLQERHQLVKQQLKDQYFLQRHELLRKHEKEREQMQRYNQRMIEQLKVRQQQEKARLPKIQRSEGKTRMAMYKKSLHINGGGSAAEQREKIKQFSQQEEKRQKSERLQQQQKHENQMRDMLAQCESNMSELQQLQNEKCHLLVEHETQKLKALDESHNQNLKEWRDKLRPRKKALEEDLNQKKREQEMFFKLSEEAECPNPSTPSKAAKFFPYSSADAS
Method: as §1, §2, §3, §4, §5

Rsk1(h) = target: T10, Rsk1(h) (Homo sapiens, UniProt Q15418); assay: Eurofins KinaseProfiler kinase selectivity; format: biochemical; conditions: compound at 1 μM; ATP 45 μM; read-out: Residual enzyme activity
T10 construct: purchased Eurofins (KinaseProfiler platform)
Method: as §1, §2, §3, §4, §5

[3] = female, Balb/c, mouse, plasma, IV 0.2 mg/kg
[4] = female, Balb/c, mouse, plasma, PO 1 mg/kg
[5] = 5 mpk/BID, compared with the modeling group, p<0.0001

CCn1c(CO)nn(-c2cc(O[C@@H](C)C(F)(F)F)c(/C(F)=C/c3ncccc3Cl)cc2F)c1=O [Compound 5]
Tlast ([1]; IV 0.2 mg/kg): 24.0 h | F ([1]; PO 1 mg/kg): 95.8% | Tlast ([1]; PO 1 mg/kg): 24.0 h | AUC(0-inf) [1, 3]: 1.51 µM·h | AUC(0-t) [1, 3]: 1.43 µM·h | clearance [1, 3]: 4.38 mL/min/kg | half-life [1, 3]: 5.83 h | MRT last [1, 3]: 6.24 h | Vd ([1]; female, Balb/c, mouse, plasma, IV 0.2 mg/kg, read-out: VdSS): 2.02 L/kg | AUC(0-inf) [1, 4]: 7.21 µM·h | AUC(0-t) [1, 4]: 6.87 µM·h | Tmax [1, 4]: 2 h | half-life [1, 4]: 5.36 h | MRT last [1, 4]: 6.99 h | C0 ([1]; female, Balb/c, mouse, IV 0.2 mg/kg, plasma): 354 nM | Cmax ([1]; female, Balb/c, mouse, PO 1 mg/kg, plasma): 794 nM | Level of inflammatory factor TNF-α in the colonic mucosa ([2]; 5 mg/kg BID, Day 8, p<0.05 compared with the modeling group): effectively reduces | Colon length (colonic shortening) at the experimental endpoint [2, 5]: significantly improves | Colonic density at the experimental endpoint [2, 5]: significantly improves the inflammation-induced increase of colonic density | DAI (Disease Activity Index) score ([2]; compared to the modeling group, administration for 6 days, Day 8 p<0.0001): significantly improved | Animal weight change ([2]; compared with the modeling group, p<0.01 on Day 8, twice a day): significantly slow down the weight loss of mice | remaining activity at 1 µM (MLK1(h)): 111% | remaining activity at 1 µM (CDK1/cyclinB(h)): 91% | remaining activity at 1 µM (Flt3(h)): 84% | remaining activity at 1 µM (KDR(h)): 90% | remaining activity at 1 µM (JAK2(h)): 81% | remaining activity at 1 µM (CDK9/cyclin T1(h)): 95% | remaining activity at 1 µM (Fyn(h)): 121% | remaining activity at 1 µM (MST1(h)): 96% | remaining activity at 1 µM (LOK(h)): 108% | remaining activity at 1 µM (Rsk1(h)): 88%
